According to PMC4767605 (Cancer chemotherapy and pharmacology, 2016):
Read-outs that look alike come from different tables or passages of the source.

[1] = Cohort 3 (n=3): ASP9853 37.5 mg + docetaxel 60 mg/m^2
[2] = Cohort 4 (n=7): ASP9853 50 mg + docetaxel 60 mg/m^2
[3] = Total ASP9853 combination with docetaxel (n=20)
[4] = lead-in phase, ASP9853 single agent
[5] = patients receiving ASP9853 in combination with docetaxel

With `O.O.O=C(/C=C/c1ccc(Cl)cc1)N[C@@H](Cc1ccccn1)C(=O)NCC(=O)N1CCC(Oc2cc(C(F)(F)F)ncn2)CC1` [ASP9853, (2E)-3-(4-chlorophenyl)-N-[(1S)-2-oxo-2-{[2-oxo-2-(4-{[6-(trifluoromethyl)-4-pyrimidinyl]oxy}-1-piperidinyl)ethyl]amino}-1-(2-pyridinylmethyl)ethyl]acrylamide dehydrate] the “AE potentially related to ASP9853: Decreased appetite; Grade All” value [1] was 1 (33) n (%), the “AE potentially related to ASP9853: Diarrhea; Grade 3/4 (only Grade 3)” value [1] was 0 n (%) and the “AE potentially related to ASP9853: Diarrhea; Grade All” value [1] was 1 (33) n (%). The “AE potentially related to ASP9853: Dizziness; Grade 3/4” value [1] was 0 n (%), the “AE potentially related to ASP9853: Dizziness; Grade All” value [1] was 1 (33) n (%) and the “AE potentially related to ASP9853: Fatigue; Grade 3/4 (only Grade 3)” value [1] was 0 n (%). For the same compound, the “AE potentially related to ASP9853: Fatigue; Grade All” value [1] was 2 (67) n (%), the “AE potentially related to ASP9853: Febrile neutropenia; Grade 3/4” value [1] was 0 n (%) and the “AE potentially related to ASP9853: Febrile neutropenia; Grade All” value [1] was 0 n (%). For the same compound, the “AE potentially related to ASP9853: Nausea; Grade 3/4” value [1] was 0 n (%), the “AE potentially related to ASP9853: Nausea; Grade All” value [1] was 1 (33) n (%) and the “AE potentially related to ASP9853: Neutropenia; Grade 3/4” value [1] was 1 (33) n (%). For the same compound, the “AE potentially related to ASP9853: Neutropenia; Grade All” value [1] was 1 (33) n (%), the “AE potentially related to ASP9853: Neutrophil count decreased; Grade 3/4” value [1] was 1 (33) n (%) and the “AE potentially related to ASP9853: Neutrophil count decreased; Grade All” value [1] was 1 (33) n (%). The “AE potentially related to ASP9853: Overall; Grade 3/4” value [1] was 2 (67) n (%), the “AE potentially related to ASP9853: Overall; Grade All” value [1] was 3 (100) n (%) and the “AE potentially related to ASP9853: Vomiting; Grade 3/4” value [1] was 0 n (%). For the same compound, the “AE potentially related to ASP9853: Vomiting; Grade All” value [1] was 0 n (%), the “AE potentially related to ASP9853: White blood cell count decreased; Grade All” value [1] was 2 (67) n (%) and the DLTs (Cohort 3: ASP9853 37.5 mg + docetaxel 60 mg/m^2, three patients) was “no DLTs were observed”. For the same compound, the “SAE considered related to ASP9853: leukopenia” value (Cohort 4) was 1 n, the “SAE considered related to ASP9853: neutropenia” value (Cohort 4) was 1 n and the “AE potentially related to ASP9853: Anemia; Grade 3/4” value [2] was 0 n (%). For the same compound, the “AE potentially related to ASP9853: Anemia; Grade All” value [2] was 1 (14) n (%), the “AE potentially related to ASP9853: Asthenia; Grade 3/4” value [2] was 0 n (%) and the “AE potentially related to ASP9853: Asthenia; Grade All” value [2] was 0 n (%). For the same compound, the “AE potentially related to ASP9853: Constipation; Grade 3/4” value [2] was 0 n (%), the “AE potentially related to ASP9853: Constipation; Grade All” value [2] was 1 (14) n (%) and the “AE potentially related to ASP9853: Decreased appetite; Grade 3/4” value [2] was 0 n (%). For the same compound, the “AE potentially related to ASP9853: Decreased appetite; Grade All” value [2] was 0 n (%), the “AE potentially related to ASP9853: Diarrhea; Grade 3/4 (only Grade 3)” value [2] was 0 n (%) and the “AE potentially related to ASP9853: Diarrhea; Grade All” value [2] was 0 n (%). The “AE potentially related to ASP9853: Dizziness; Grade 3/4” value [2] was 0 n (%), the “AE potentially related to ASP9853: Dizziness; Grade All” value [2] was 2 (29) n (%) and the “AE potentially related to ASP9853: Fatigue; Grade 3/4 (only Grade 3)” value [2] was 1 (14) n (%). The “AE potentially related to ASP9853: Fatigue; Grade All” value [2] was 2 (29) n (%), the “AE potentially related to ASP9853: Febrile neutropenia; Grade 3/4” value [2] was 0 n (%) and the “AE potentially related to ASP9853: Febrile neutropenia; Grade All” value [2] was 0 n (%). For the same compound, the “AE potentially related to ASP9853: Nausea; Grade 3/4” value [2] was 0 n (%), the “AE potentially related to ASP9853: Nausea; Grade All” value [2] was 1 (14) n (%) and the “AE potentially related to ASP9853: Neutropenia; Grade 3/4” value [2] was 2 (29) n (%). The “AE potentially related to ASP9853: Neutropenia; Grade All” value [2] was 2 (29) n (%), the “AE potentially related to ASP9853: Neutrophil count decreased; Grade 3/4” value [2] was 1 (14) n (%) and the “AE potentially related to ASP9853: Neutrophil count decreased; Grade All” value [2] was 1 (14) n (%). For the same compound, the “AE potentially related to ASP9853: Overall; Grade 3/4” value [2] was 4 (57) n (%), the “AE potentially related to ASP9853: Overall; Grade All” value [2] was 7 (100) n (%) and the “AE potentially related to ASP9853: Vomiting; Grade 3/4” value [2] was 0 n (%). The “AE potentially related to ASP9853: Vomiting; Grade All” value [2] was 1 (14) n (%), the “AE potentially related to ASP9853: White blood cell count decreased; Grade All” value [2] was 2 (29) n (%) and the “AE potentially related to ASP9853: Anemia; Grade 3/4” value [3] was 0 n (%). For the same compound, the “AE potentially related to ASP9853: Anemia; Grade All” value [3] was 3 (15) n (%), the “AE potentially related to ASP9853: Asthenia; Grade 3/4” value [3] was 0 n (%) and the “AE potentially related to ASP9853: Asthenia; Grade All” value [3] was 2 (10) n (%). The “AE potentially related to ASP9853: Constipation; Grade 3/4” value [3] was 0 n (%), the “AE potentially related to ASP9853: Constipation; Grade All” value [3] was 3 (15) n (%) and the “AE potentially related to ASP9853: Decreased appetite; Grade 3/4” value [3] was 0 n (%). For the same compound, the “AE potentially related to ASP9853: Decreased appetite; Grade All” value [3] was 2 (10) n (%), the “AE potentially related to ASP9853: Diarrhea; Grade 3/4 (only Grade 3)” value [3] was 1 (5) n (%) and the “AE potentially related to ASP9853: Diarrhea; Grade All” value [3] was 4 (20) n (%). For the same compound, the “AE potentially related to ASP9853: Dizziness; Grade 3/4” value [3] was 0 n (%), the “AE potentially related to ASP9853: Dizziness; Grade All” value [3] was 3 (15) n (%) and the “AE potentially related to ASP9853: Fatigue; Grade 3/4 (only Grade 3)” value [3] was 2 (10) n (%). The “AE potentially related to ASP9853: Fatigue; Grade All” value [3] was 9 (45) n (%), the “AE potentially related to ASP9853: Febrile neutropenia; Grade 3/4” value [3] was 2 (10) n (%) and the “AE potentially related to ASP9853: Febrile neutropenia; Grade All” value [3] was 2 (10) n (%). The “AE potentially related to ASP9853: Nausea; Grade 3/4” value [3] was 0 n (%), the “AE potentially related to ASP9853: Nausea; Grade All” value [3] was 4 (20) n (%) and the “AE potentially related to ASP9853: Neutropenia; Grade 3/4” value [3] was 4 (20) n (%). For the same compound, the “AE potentially related to ASP9853: Neutropenia; Grade All” value [3] was 4 (20) n (%), the “AE potentially related to ASP9853: Neutrophil count decreased; Grade 3/4” value [3] was 2 (10) n (%) and the “AE potentially related to ASP9853: Neutrophil count decreased; Grade All” value [3] was 2 (10) n (%). For the same compound, the “AE potentially related to ASP9853: Overall; Grade 3/4” value [3] was 11 (55) n (%), the “AE potentially related to ASP9853: Overall; Grade All” value [3] was 18 (90) n (%) and the “AE potentially related to ASP9853: Vomiting; Grade 3/4” value [3] was 0 n (%). The “AE potentially related to ASP9853: Vomiting; Grade All” value [3] was 4 (20) n (%), the “AE potentially related to ASP9853: White blood cell count decreased; Grade All” value [3] was 5 (25) n (%) and the “Patients with AEs considered to be potential DLTs” value (all cohorts, ASP9853 + docetaxel) was “Five”. The “Patients who met the protocol-defined DLT criteria” value (in Cohorts 1 and 2) was “three”, the “Patients with post-baseline maximum Grade 1 neutropenia” value (laboratory evaluation) was “three” and the “Patients with post-baseline maximum Grade 4 neutropenia” value (laboratory evaluation) was “eight”. The “AE possibly related to ASP9853: QT prolonged electrocardiogram” value [4] was 1 n, the “AE possibly related to ASP9853: arthralgia” value [4] was 1 n and the “AE possibly related to ASP9853: asthenia” value [4] was 1 n. For the same compound, the “AE possibly related to ASP9853: gastrooesophageal reflux disease” value [4] was 1 n, the “AE possibly related to ASP9853: leukopenia” value [4] was 1 n and the “AE possibly related to ASP9853: nausea” value [4] was 1 n. The “AE possibly related to ASP9853: pollakiuria” value [4] was 1 n, the “AE possibly related to ASP9853: vomiting” value [4] was 1 n and the “AE regardless of relationship to study drug: alopecia” value [5] was 30.0%. For the same compound, the “AE regardless of relationship to study drug: decreased appetite” value [5] was 30.0%, the “AE regardless of relationship to study drug: decreased white blood cells” value [5] was 35.0% and the “AE regardless of relationship to study drug: fatigue” value [5] was 45.0%. For the same compound, the “AE regardless of relationship to study drug: nausea” value [5] was 35.0% and the “AE regardless of relationship to study drug: neutropenia” value [5] was 50.0%.
